The values below come from ChEMBL document CHEMBL1629412, “Cyclic peptide inhibitors of HIV-1 integrase derived from the LEDGF/p75 protein” (Bioorg Med Chem, 2010).

Activity calls are given as the source filed them. No cut-off for these calls is given here. Numbered stars: 1 amine (or outer) side, 2 acyl side, 3 side chain; on linkers, the order of the positions; unused ones are H or OH. Bridge positions count the residues as written; N and C are the ends. Square brackets hold non-standard residues; d marks the D form. Peptide text beside a SMILES is read from it. X2 = O=C(c1ccccc1-c1c2ccc(=O)cc-2oc2cc(O)ccc12)N(CCC(=O)[*:1])C(=O)[*:2]; X1 = O=C(c1ccccc1-c1c2ccc(=O)cc-2oc2cc(O)ccc12)N(CC(=O)[*:1])C(=O)[*:2]; N(6-aminohexyl)Gly = O=C(CN(CCCCCCN[*:3])[*:1])[*:2]; NGly(3-aminopropyl) = O=C(CN(CCCN[*:3])[*:1])[*:2]; N(2-Aminoethyl)Gly = O=C(CN(CCN[*:3])[*:1])[*:2]; Nlys = NCCCCNCC(=O)O Some results are limits rather than exact numbers.

Data set [1] deals with Human immunodeficiency virus type 1 integrase (Human immunodeficiency virus 1) (UniProt Q7ZJM1). Description: Binding affinity to HIV-1 Integrase by FRET assay.
The subject of data set [2] is Human immunodeficiency virus 1. Description: Antiviral activity against HIV1 infected in human MAGI cells assessed as Tat-mediated reporter gene expression. Format: functional, organism-based.
Data set [3] deals with Human immunodeficiency virus type 1 integrase (Human immunodeficiency virus 1) (UniProt Q7ZJM1). Description: Inhibition of HIV-1 Integrase at 1:50 protein/compound molar ratio. The note with it: concentration not given here.
Data set [4] can be described thus: Chemical stability of the compound in presence of trypsin and chymotrypsin mixture at 1 mM after 30 mins by MALDI-TOF MS. In kind it is physicochemical. The note with it: isolated protein, 0.5 h, 1000 µM.
Data set [5] relates to Human immunodeficiency virus 1. Description: Antiviral activity against HIV1 infected in human H9 cells assessed as extracellular release of viral protein p24 at 12.5 uM added to the medium every 2 days. In kind it is functional.
The subject of data set [6] is Human immunodeficiency virus 1. Description: Antiviral activity against HIV1 infected in human H9 cells assessed as extracellular release of viral protein p24 at 12.5 uM added to the medium every 2 days measured after 8 days. In kind it is functional. The note with it: Human immunodeficiency virus 1, H9.
Data set [7] in a line: Chemical stability of the compound in presence of trypsin and chymotrypsin mixture at 1 mM after 150 mins by MALDI-TOF MS. Format: physicochemical. The note with it: isolated protein, 2.5 h, 1000 µM.
The target in data set [8] is Human immunodeficiency virus type 1 integrase (Human immunodeficiency virus 1) (UniProt Q7ZJM1). In words: Inhibition of HIV-1 Integrase. The note with it: concentration not given here.
The subject of data set [9] is Human immunodeficiency virus 1. In words: Antiviral activity against HIV1 infected in human H9 cells assessed as extracellular release of viral protein p24 at 12.5 uM after 8 days. In kind it is functional, organism-based.

Human immunodeficiency virus type 1 integrase (Human immunodeficiency virus 1), sequence (Q7ZJM1 as listed by the source): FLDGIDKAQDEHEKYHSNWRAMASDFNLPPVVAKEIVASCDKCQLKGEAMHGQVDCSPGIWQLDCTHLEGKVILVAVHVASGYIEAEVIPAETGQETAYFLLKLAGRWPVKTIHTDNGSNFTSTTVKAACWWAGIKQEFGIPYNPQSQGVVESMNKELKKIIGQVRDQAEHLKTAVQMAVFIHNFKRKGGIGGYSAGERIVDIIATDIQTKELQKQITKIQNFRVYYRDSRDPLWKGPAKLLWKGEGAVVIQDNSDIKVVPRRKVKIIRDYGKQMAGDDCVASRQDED

In [1], `CC[C@H](C)[C@@H]1NC(=O)[C@H](CCCCN)NC(=O)[C@H](CC(C)C)NC(=O)[C@H](CO)NC(=O)[C@H](CC(N)=O)NC(=O)[C@H](Cc2c[nH]c3ccccc23)NC(=O)CN(C(=O)c2ccccc2-c2c3ccc(=O)cc-3oc3cc(O)ccc23)C(=O)NCCCCCCN(CC(N)=O)C(=O)[C@H](C(C)C)NC(=O)[C@H](CC(=O)O)NC(=O)[C@H](CC(C)C)NC(=O)[C@H](CC(N)=O)NC(=O)[C@H](CC(=O)O)NC1=O` (WNSLKIDNLDV[N(6-aminohexyl)Gly]-NH2; linker N-12 via X1) yielded an Activity of 3.3 µM. In data set [2], the outcome was inactive. Moreover, in data set [3], the inhibition was determined as 48%.
Take `CC[C@H](C)[C@@H]1NC(=O)[C@H](CCCCN)NC(=O)[C@H](CC(C)C)NC(=O)[C@H](CO)NC(=O)[C@H](CC(N)=O)NC(=O)[C@H](Cc2c[nH]c3ccccc23)NC(=O)CCN(C(=O)c2ccccc2-c2c3ccc(=O)cc-3oc3cc(O)ccc23)C(=O)NCCCCCCN(CC(N)=O)C(=O)[C@H](C(C)C)NC(=O)[C@H](CC(=O)O)NC(=O)[C@H](CC(C)C)NC(=O)[C@H](CC(N)=O)NC(=O)[C@H](CC(=O)O)NC1=O` (WNSLKIDNLDV[N(6-aminohexyl)Gly]-NH2; linker N-12 via X2): in data set [1], the Activity is 3.8 µM. In [3], the inhibition stood at 48%.
In the same order, the values of `CC[C@H](C)[C@@H]1NC(=O)[C@H](CCCCN)NC(=O)[C@H](CC(C)C)NC(=O)[C@H](CO)NC(=O)[C@H](CC(N)=O)NC(=O)[C@H](Cc2c[nH]c3ccccc23)NC(=O)CCN(C(=O)c2ccccc2-c2c3ccc(=O)cc-3oc3cc(O)ccc23)C(=O)NCCN(CC(N)=O)C(=O)[C@H](C(C)C)NC(=O)[C@H](CC(=O)O)NC(=O)[C@H](CC(C)C)NC(=O)[C@H](CC(N)=O)NC(=O)[C@H](CC(=O)O)NC1=O` (WNSLKIDNLDV[N(2-Aminoethyl)Gly]-NH2; linker N-12 via X2) are 6.3 µM and 54%.
In turn, `CC[C@H](C)[C@@H]1NC(=O)[C@H](CCCCN)NC(=O)[C@H](CC(C)C)NC(=O)[C@H](CO)NC(=O)[C@H](CC(N)=O)NC(=O)[C@H](Cc2c[nH]c3ccccc23)NC(=O)CCN(C(=O)c2ccccc2-c2c3ccc(=O)cc-3oc3cc(O)ccc23)C(=O)NCCCCN(CC(N)=O)C(=O)[C@H](C(C)C)NC(=O)[C@H](CC(=O)O)NC(=O)[C@H](CC(C)C)NC(=O)[C@H](CC(N)=O)NC(=O)[C@H](CC(=O)O)NC1=O` (WNSLKIDNLDV[Nlys]-NH2; linker N-12 via X2) had an Activity in data set [1] of 3.1 µM. In addition, the inhibition in data set [3] amounted to 65%.
For the molecule `CC[C@H](C)[C@@H]1NC(=O)[C@H](CCCCN)NC(=O)[C@H](CC(C)C)NC(=O)[C@H](CO)NC(=O)[C@H](CC(N)=O)NC(=O)[C@H](Cc2c[nH]c3ccccc23)NC(=O)CN(C(=O)c2ccccc2-c2c3ccc(=O)cc-3oc3cc(O)ccc23)C(=O)NCCCCN(CC(N)=O)C(=O)[C@H](C(C)C)NC(=O)[C@H](CC(=O)O)NC(=O)[C@H](CC(C)C)NC(=O)[C@H](CC(N)=O)NC(=O)[C@H](CC(=O)O)NC1=O` (WNSLKIDNLDV[Nlys]-NH2; linker N-12 via X1), the Stability result in [4] is given as “Stable”; in data set [7] it was “Unstable”. In addition, the Activity in data set [1] is 5 µM; in [2], “Dose-dependent effect”. The inhibition at 12.5 µM in data set [5] (Human immunodeficiency virus 1, H9, 48 h) was 80%; in [6], above 90%. Besides, the inhibition in [3] worked out at 90%.
Take `CC[C@H](C)[C@@H]1NC(=O)[C@H](CCCCN)NC(=O)[C@H](CC(C)C)NC(=O)[C@H](CO)NC(=O)[C@H](CC(N)=O)NC(=O)[C@H](Cc2c[nH]c3ccccc23)NC(=O)CCN(C(=O)c2ccccc2-c2c3ccc(=O)cc-3oc3cc(O)ccc23)C(=O)NCCCN(CC(N)=O)C(=O)[C@H](C(C)C)NC(=O)[C@H](CC(=O)O)NC(=O)[C@H](CC(C)C)NC(=O)[C@H](CC(N)=O)NC(=O)[C@H](CC(=O)O)NC1=O` (WNSLKIDNLDV[NGly(3-aminopropyl)]-NH2; linker N-12 via X2): the Activity in data set [1] is 4 µM. The inhibition in data set [3] was 19%.
For H-WNSLKIDNLDV-OH, the Stability entry in data set [4] was “Unstable”. The inhibition in [8] was 85%; in data set [3] it was 83%. Also, the Activity in [1] is 5.1 µM; in data set [2], “Dose-dependent effect”. In addition, in data set [5], the result was Active. In addition, in [9], the result was inactive.
On to `CC[C@H](C)[C@@H]1NC(=O)[C@H](CCCCN)NC(=O)[C@H](CC(C)C)NC(=O)[C@H](CO)NC(=O)[C@H](CC(N)=O)NC(=O)[C@H](Cc2c[nH]c3ccccc23)NC(=O)CN(C(=O)c2ccccc2-c2c3ccc(=O)cc-3oc3cc(O)ccc23)C(=O)NCCCN(CC(N)=O)C(=O)[C@H](C(C)C)NC(=O)[C@H](CC(=O)O)NC(=O)[C@H](CC(C)C)NC(=O)[C@H](CC(N)=O)NC(=O)[C@H](CC(=O)O)NC1=O` (WNSLKIDNLDV[NGly(3-aminopropyl)]-NH2; linker N-12 via X1), for which, in data set [1], the Activity was 6.5 µM. The inhibition in data set [3] is 44%.
Taken in the same sequence, the figures for `CC[C@H](C)[C@@H]1NC(=O)[C@H](CCCCN)NC(=O)[C@H](CC(C)C)NC(=O)[C@H](CO)NC(=O)[C@H](CC(N)=O)NC(=O)[C@H](Cc2c[nH]c3ccccc23)NC(=O)CN(C(=O)c2ccccc2-c2c3ccc(=O)cc-3oc3cc(O)ccc23)C(=O)NCCN(CC(N)=O)C(=O)[C@H](C(C)C)NC(=O)[C@H](CC(=O)O)NC(=O)[C@H](CC(C)C)NC(=O)[C@H](CC(N)=O)NC(=O)[C@H](CC(=O)O)NC1=O` (WNSLKIDNLDV[N(2-Aminoethyl)Gly]-NH2; linker N-12 via X1) were 5.2 µM and 51%.
